Entries after “also recorded” stand apart in the source; their conditions may differ. Read-outs that look alike come from different tables or passages of the source.
Legend:
[1] = system: EBOV; assay type: cell-based, Zaire Ebola virus (EBOV) strain Mayinga
[2] = in vitro; details: human
[3] = system: poliovirus; test: microbe, parasite or virus in culture; assay type: cell-based, Poliovirus Typ 1 (strain Mahoney; PV); details: Enterovirus C
[4] = system: Rhinovirus 1A; test: microbe, parasite or virus in culture; assay type: cell-based, human Rhinovirus 1A (HRV1A); details: for EC50: Enterovirus, HeLa
[5] = system: 5'-UTR from HCoV-229E; assay type: cell-based
[6] = system: 5'-UTR from MERS-CoV; assay type: cell-based
[7] = system: poliovirus; test: microbe, parasite or virus in culture; assay type: cell-based, Poliovirus Typ 1 (strain Mahoney; PV)
[8] = system: Huh-7 cells; test: Cell morphology of Huh-7 cells by light microscopy; assay type: cell-based, human; details: 10 nM, three days
[9] = system: Huh-7 cells; test: WST-1 proliferation assay of Huh-7 cells
[10] = system: proto-oncogenic kinase PIM1; test: Westernblot of PIM1 in primary macrophages; assay type: cell-based, human
[11] = system: MERS-CoV; test: microbe, parasite or virus in culture; assay type: cell-based, MERS-CoV (EMC/2012)
[12] = system: Coronaviruses; test: organism not typed; assay type: cell-based; details: MRC5, read-out: EC50-values
[13] = Cell toxicity (MTT) in hAEC; details: human
[14] = system: EBOV; assay type: cell-based, Zaire Ebola virus (EBOV) strain Mayinga; remark: listed apart in the source
[15] = system: HCoV-229E; test: microbe, parasite or virus in culture; assay type: cell-based, Human Coronavirus 229E (HCoV-229E); details: Human coronavirus 229E
[16] = system: HCoV-229E proteins N and nsp8; test: Westernblot analysis, Method 2, HCoV-229E proteins N and nsp8; assay type: cell-based
[17] = system: 5'-UTRs of all seven EBOV mRNAs; assay type: cell-based
[18] = system: EBOV proteins VP40, NP and GP; assay type: cell-based, Zaire Ebola virus (EBOV) strain Mayinga
[19] = Cell toxicity (MTT) in PBMCs; details: human
[20] = system: rhinovirus A1; test: organism not typed; assay type: cell-based, human Rhinovirus 1A (HRV1A); details: for EC50: MRC5, 24 h
[21] = system: viral dsRNA and nsp8; test: Immunofluorescence of replication/transcription complexes in HCoV-229E infected MRC-5 cells; assay type: cell-based; details: MOI 3, 12 h p.i.
[22] = system: primary macrophages; test: WST-1 viability assay of primary macrophages
[23] = system: 5'-UTRs of Ebola mRNAs; test: cells; assay type: cell-based, EBOV; details: for inhibition at 0.01 µM: Zaire ebolavirus
[24] = system: EBOV NP protein; assay type: cell-based, Zaire Ebola virus (EBOV) strain Mayinga
[25] = system: MERS-CoV; test: microbe, parasite or virus in culture; assay type: cell-based, MERS-CoV (EMC/2012); remark: listed apart in the source
[26] = system: HCoV-229E; test: microbe, parasite or virus in culture; assay type: cell-based, Human Coronavirus 229E (HCoV-229E)

**Q.** Which “reduction of viral titers” value [1] does the source give for `COC(=O)[C@H]1[C@@H](O)[C@@]2(O)c3c(OC)cc(O[C@@H]4O[C@@H]([C@H](O)CO)CO[C@H]4OC)cc3O[C@@]2(c2ccc(OC)cc2)[C@@H]1c1ccccc1` [Silvestrol] here?
**A.** up to two orders of magnitude

**Q.** What about the CC50 ([2]; CC50) of the same compound?
**A.** 1700 nM

**Q.** What about the CC50 ([2]; CC50 / cell toxicity) of the same compound?
**A.** > 1000 nM

**Q.** And the EC50 ([3]; Vero C1008)?
**A.** ~100 nM

**Q.** And the EC50 ([3]; Vero C1008, 24 h, read-out: effective dose (EC50))?
**A.** 100 nM

**Q.** And the “EC50 fold higher compared to HCoV-229E in Huh-7” value [4]?
**A.** about 10 fold

**Q.** And the EC50 [4]?
**A.** 400 nM

**Q.** What about the EC50 ([4]; 24 h, read-out: effective dose (EC50)) of the same compound?
**A.** 400 nM

**Q.** And the “decrease of luciferase activity” value [5]?
**A.** ~40%

**Q.** And the “decrease of luciferase activity” value [6]?
**A.** ~40%

**Q.** And the “fold less sensitive / less efficient compared to MERS-CoV and HCoV-229E” value [7]?
**A.** about 10 fold

**Q.** What about the EC50 ([7]; Enterovirus C, MRC5, 24 h) of the same compound?
**A.** 20 nM

**Q.** What about the cell morphology [8] of the same compound?
**A.** without changing cell morphology

**Q.** What about the “effect on proliferation of Huh-7 cells” value ([9]; higher concentrations up to 100 nM, compared to DMSO control) of the same compound?
**A.** weakly affected; also recorded: weak effects on proliferation

**Q.** And the “effect on proliferation of Huh-7 cells” value ([9]; up to 10 nM Silvestrol, WST-1, 48 h)?
**A.** no obvious effects on proliferation; also recorded: No effect of Silvestrol on proliferation

**Q.** What about the PIM1 levels ([10]; primary macrophages, 10 nM) of the same compound?
**A.** strongly decreased levels

**Q.** And the “duration of inhibitory effect on PIM1 levels” value ([10]; single dose 10 nM, macrophages)?
**A.** at least 5 days

**Q.** What about the “cellular β-Actin levels” value ([10]; single dose 10 nM, macrophages, up to 5 days) of the same compound?
**A.** without affecting cellular β-Actin levels

**Q.** What about the “selectivity index (CC50/EC50)” value [11] of the same compound?
**A.** 1538

**Q.** And the EC50 ([11]; Middle East respiratory syndrome-related coronavirus, MRC5, 24 h)?
**A.** 1.3 nM

**Q.** What about the EC50 [12] of the same compound?
**A.** 1 to 3 nM

**Q.** And the CC50 at 48 h [13]?
**A.** 500 nM

**Q.** What about the “antiviral effect (EBOV titer)” value [14] of the same compound?
**A.** comparable antiviral effect

**Q.** What about the “inhibition of EBOV infection (viral titers)” value [14] of the same compound?
**A.** substantially inhibits EBOV infection; also recorded: inhibits viral propagation efficiently; also recorded: strongly inhibits EBOV replication

**Q.** What about the EC50 ([15]; Huh-7) of the same compound?
**A.** 40 nM

**Q.** And the EC50 ([15]; Huh-7, 24 h, read-out: effective dose (EC50))?
**A.** 40 nM

**Q.** What about the “level of N-protein” value ([16]; HCoV-229E infected primary MRC-5 cells, 10 nM, 12 h and 48 h p.i.) of the same compound?
**A.** disappears

**Q.** And the “HCoV-229E proteins N and nsp8” value ([16]; Huh-7 infected cells, 10 nM)?
**A.** detectable

**Q.** What about the N-protein ([16]; Huh-7 infected cells, 100 nM) of the same compound?
**A.** only very low amounts

**Q.** And the nsp8 ([16]; Huh-7 infected cells, 100 nM)?
**A.** completely absent

**Q.** And the “inhibition of firefly luciferase activity” value [17]?
**A.** 23-33%

**Q.** And the “reduction of firefly luciferase activity” value [17]?
**A.** no significant reduction

**Q.** And the “EBOV protein VP40 levels” value [18]?
**A.** strong reduction of VP40 levels; also recorded: inhibits the expression

**Q.** What about the “EBOV proteins NP and GP levels” value [18] of the same compound?
**A.** Downregulation

**Q.** What about the “cellular protein tubulin level” value [18] of the same compound?
**A.** not affected

**Q.** And the CC50 [19]?
**A.** 400 nM

**Q.** And the “fold less sensitive compared to the analyzed coronaviruses” value [20]?
**A.** about 100 fold

**Q.** What about the EC50 [20] of the same compound?
**A.** 100 nM

**Q.** And the EC50 ([20]; Rhinovirus A)?
**A.** 100 nM

**Q.** What about the “levels of double-stranded viral RNA and nsp8 (RTC markers)” value ([21]; 10 nM) of the same compound?
**A.** drop down

**Q.** And the “levels of double-stranded viral RNA and nsp8 (RTC markers)” value ([21]; 100 nM)?
**A.** nearly no viral dsRNA or nsp8 can be detected

**Q.** And the IC50 ([22]; Homo sapiens, Primary macrophage, 72 h, read-out: IC50 (WST-1 viability assay), primary macrophages, 0.1 nM - 10 µM, 72 h)?
**A.** ~96 nM

**Q.** And the “concentration with essentially no sign of toxicity” value ([22]; primary macrophages, WST-1)?
**A.** at least 50 nM

**Q.** What about the “effect on IRES-driven renilla luciferase activity” value [23] of the same compound?
**A.** no obvious effect

**Q.** What about the inhibition at 0.01 µM ([23]; HepG2, read-out: inhibitory effect on firefly luciferase activity) of the same compound?
**A.** 80%

**Q.** And the inhibition at 0.01 µM ([23]; HepG2, read-out: inhibitory effect on luciferase levels)?
**A.** 30%

**Q.** And the “expression level of the EBOV NP protein” value [24]?
**A.** potent downregulation; also recorded: strongly decreased levels

**Q.** What about the selectivity index [25] of the same compound?
**A.** 166

**Q.** What about the EC50 ([25]; Middle East respiratory syndrome-related coronavirus, Epithelial cell, 48 h) of the same compound?
**A.** 3 nM

**Q.** What about the “EC50 fold lower in MRC-5 cells compared to infected Huh-7 cells” value [26] of the same compound?
**A.** about 10 fold

**Q.** What about the “selectivity index (CC50/EC50)” value [26] of the same compound?
**A.** 566

**Q.** What about the EC50 ([26]; Human coronavirus 229E, MRC5, 24 h) of the same compound?
**A.** 3 nM

Reference: patent publication EP3305290B1, “[…] […] FOR USE IN THE TREATMENT OF VIRAL INFECTIONS” (priority 2016, dated 2018)
